# Measured values from ChEMBL document CHEMBL5149970 (J Med Chem, 2021).
# The source made the active and inactive calls. No cut-off for these calls is given here.
# Tested on: not listed separately
# Assay: Antiproliferative activity against human EU-1 cells assessed as inhibition of cell growth incubated for 48 hrs by WST assay
# Format: functional, cell-based
# Settings: EU-1, 48 h
row,Structure (SMILES),IC50
1,COC(=O)c1ccc(C2Nc3ccc(S(=O)(=O)Nc4ccc(C)c(C)c4)cc3C3C=CCC32)cc1 (stereo unspecified),4.7 µM
2,Cc1ccc(NS(=O)(=O)c2ccc3c(c2)C2OCCCC2C(c2ccc(C(=O)O)cc2)N3)cc1C (stereo unspecified),> 50 µM
3,CC(C)C(=O)c1ccc(C2Nc3ccc(S(=O)(=O)Nc4ccccc4)cc3C3OCCC23)cc1 (stereo unspecified),3.2 µM
4,Cc1ccc(N(C)S(=O)(=O)c2ccc3c(c2)C2OCCC2C(c2ccc(C(=O)C(C)C)cc2)N3C)cc1C (stereo unspecified),1.2 µM
5,Cc1ccc(NS(=O)(=O)c2ccc3c(c2)C2OCCC2C(c2ccc(C(O)C(C)C)cc2)N3)cc1C (stereo unspecified),2 µM
6,Cc1ccc(NS(=O)(=O)c2ccc3c(c2)[C@H]2OCC[C@H]2[C@H](c2ccc(C(=O)C(C)C)cc2)N3)cc1C,2.4 µM
7,Cc1ccc(NS(=O)(=O)c2ccc3c(c2)C2c4ccccc4CC2C(c2ccc(C(=O)O)cc2)N3)cc1C (stereo unspecified),20.5 µM
8,Cc1ccc(NS(=O)(=O)c2ccc3c(c2)C2OCCC2C(c2ccc(C(=O)c4ccccc4)cc2)N3)cc1C (stereo unspecified),3.2 µM
9,CC(C)C(=O)c1ccc(C2Nc3ccc(S(=O)(=O)Nc4ccc(Br)c(Br)c4)cc3C3OCCC23)cc1 (stereo unspecified),5.2 µM
10,Cc1ccc(NS(=O)(=O)c2ccc3c(c2)C2OCCC2C(c2ccc(C(=O)O)cc2)N3)cc1C (stereo unspecified),> 50 µM
11,Cc1cc(NS(=O)(=O)c2ccc3c(c2)C2OCCC2C(c2ccc(C(=O)C(C)C)cc2)N3)ccc1F (stereo unspecified),2.9 µM
12,Cc1cccc(NS(=O)(=O)c2ccc3c(c2)C2OCCC2C(c2ccc(C(=O)C(C)C)cc2)N3)c1 (stereo unspecified),1.4 µM
13,CCCC(=O)c1ccc(C2Nc3ccc(S(=O)(=O)Nc4ccc(C)c(C)c4)cc3C3OCCC23)cc1 (stereo unspecified),2.9 µM
14,Cc1ccc(NS(=O)(=O)c2ccc3c(c2)C2OCCC2C(c2ccc(C(=O)C(C)C)cc2)N3)cc1Cl (stereo unspecified),1.6 µM
15,COC(=O)c1ccc(C2Nc3ccc(S(=O)(=O)Nc4ccc(C)c(C)c4)cc3C3OCCCC23)cc1 (stereo unspecified),4.6 µM
16,Cc1ccc(NS(=O)(=O)c2ccc3c(c2)C2OCCC2C(c2ccc(C(=O)C4CCCCC4)cc2)N3)cc1C (stereo unspecified),3.1 µM
17,Cc1ccc(NS(=O)(=O)c2ccc3c(c2)C2CCCC2C(c2ccc(C(=O)C(C)C)cc2)N3)cc1C (stereo unspecified),7 µM
18,CC(=O)c1ccc(C2Nc3ccc(S(=O)(=O)Nc4ccc(C)c(C)c4)cc3C3OCCC23)cc1 (stereo unspecified),0.5 µM
19,Cc1ccc(NS(=O)(=O)c2ccc3c(c2)C2OCCC2C(c2cccc4ccccc24)N3)cc1C (stereo unspecified),6.1 µM
20,COC(=O)c1ccc(C2Nc3ccc(S(=O)(=O)Nc4ccc(C)c(C)c4)cc3C3OCCC23)cc1 (stereo unspecified),2.2 µM
21,Cc1ccc(NS(=O)(=O)c2ccc3c(c2)[C@@H]2OCC[C@@H]2[C@H](c2ccc(C(=O)C(C)C)cc2)N3)cc1C,1.6 µM
22,Cc1ccc(NS(=O)(=O)c2cc3c(cc2Cl)NC(c2ccc(S(C)(=O)=O)cc2)C2CC=CC32)cc1C (stereo unspecified),> 50 µM
23,Cc1cc(NS(=O)(=O)c2ccc3c(c2)C2OCCC2C(c2ccc(C(=O)C(C)C)cc2)N3)ccc1Cl (stereo unspecified),6.3 µM

row,Structure (SMILES),IC50
1,Cc1ccc(NS(=O)(=O)c2ccc3c(c2)C2C=CCC2C(c2ccc(C(=O)C(C)C)cc2)N3)cc1C (stereo unspecified),2.7 µM
2,COC(=O)c1ccc(C2Nc3ccc(S(=O)(=O)Nc4ccc(C)c(C)c4)cc3C3NCCC23)cc1 (stereo unspecified),3.5 µM
3,Cc1ccc(NS(=O)(=O)c2ccc3c(c2)C2NCCC2C(c2ccc(C(=O)C(C)C)cc2)N3)cc1C (stereo unspecified),3.8 µM
4,Cc1ccc(NS(=O)(=O)c2ccc3c(c2)C2C=CCC2C(c2ccc(C(=O)O)cc2)N3)cc1C (stereo unspecified),7.5 µM
5,Cc1ccc(NS(=O)(=O)c2ccc3c(c2)[C@H]2OCC[C@H]2[C@@H](c2ccc(C(=O)C(C)C)cc2)N3)cc1C,0.3 µM
6,Cc1ccc(NS(=O)(=O)c2ccc3c(c2)C2OCCC2C(c2ccc(S(C)(=O)=O)cc2)N3)cc1C (stereo unspecified),4.1 µM
7,Cc1ccc(NS(=O)(=O)c2ccc3c(c2)C2C=CCC2C(c2ccc(S(C)(=O)=O)cc2)N3)cc1C (stereo unspecified),6.2 µM
8,Cc1ccc(NS(=O)(=O)c2ccc3c(c2)[C@@H]2OCC[C@@H]2[C@@H](c2ccc(C(=O)C(C)C)cc2)N3)cc1C,1.9 µM
9,Cc1cc(NS(=O)(=O)c2ccc3c(c2)C2OCCC2C(c2ccc(C(=O)C(C)C)cc2)N3)ccc1C(F)(F)F (stereo unspecified),7.2 µM
10,Cc1ccc(NS(=O)(=O)c2ccc3c(c2)C2NCCC2C(c2ccc(C(=O)O)cc2)N3)cc1C (stereo unspecified),> 50 µM
11,C=CC(=O)c1ccc(C2Nc3ccc(S(=O)(=O)Nc4ccc(C)c(C)c4)cc3C3OCCC23)cc1 (stereo unspecified),30 µM
12,COC(=O)c1ccc(C2Nc3cc(Cl)c(S(=O)(=O)Nc4ccc(C)c(C)c4)cc3C3OCCC23)cc1 (stereo unspecified),> 50 µM
13,COC(=O)c1ccc(C2Nc3ccc(S(=O)(=O)Nc4ccc(C)c(C)c4)cc3C3c4ccccc4CC23)cc1 (stereo unspecified),18.3 µM
14,Cc1ccc(NS(=O)(=O)c2ccc3c(c2)C2OCCC2C(c2cccc(C(=O)C(C)C)c2)N3)cc1C (stereo unspecified),3.6 µM
15,Cc1ccc(N(C)S(=O)(=O)c2ccc3c(c2)C2OCCC2C(c2ccc(C(=O)C(C)C)cc2)N3)cc1C (stereo unspecified),1.6 µM
16,Cc1ccc(NS(=O)(=O)c2ccc3c(c2)C2OCCC2C(c2ccc(C(C)C)cc2)N3)cc1C (stereo unspecified),4.2 µM
17,Cc1ccc(NS(=O)(=O)c2ccc3c(c2Cl)C2C=CCC2C(c2ccc(S(C)(=O)=O)cc2)N3)cc1C (stereo unspecified),23.4 µM
18,CC(C)C(=O)c1ccc(C2Nc3ccc(S(=O)(=O)Nc4ccc(Cl)c(Cl)c4)cc3C3OCCC23)cc1 (stereo unspecified),5.6 µM
19,Cc1ccc(NS(=O)(=O)c2ccc3c(c2)C2OCCC2C(c2ccc(C(=O)C(C)C)cc2)N3)cc1 (stereo unspecified),3.3 µM
20,Cc1ccc(NS(=O)(=O)c2ccc3c(c2)C2OCCC2C(c2ccc(Br)cc2)N3)cc1C (stereo unspecified),3.6 µM
21,COC(=O)c1ccc(C2Nc3c(Cl)cc(S(=O)(=O)Nc4ccc(C)c(C)c4)cc3C3OCCC23)cc1 (stereo unspecified),> 50 µM
22,CC(=O)c1cccc(C2Nc3ccc(S(=O)(=O)Nc4ccc(C)c(C)c4)cc3C3OCCC23)c1 (stereo unspecified),2 µM
23,Cc1ccc(NS(=O)(=O)c2ccc3c(c2)C2OCCC2C(c2ccc(C(=O)C4CC4)cc2)N3)cc1C (stereo unspecified),5.2 µM

# Tested on: EU-1
# Assay: Inhibition of MDM2/XIAP IRES mRNA interaction in human EU-1 cells assessed as increase in caspase-3 cleavage at 5 uM measured for 24 hrs by western blot analysis
# Format: cell-based
# Settings: not given
row,Structure (SMILES),inhibition
1,Cc1ccc(NS(=O)(=O)c2ccc3c(c2)C2C=CCC2C(c2ccc(C(=O)O)cc2)N3)cc1C (stereo unspecified),Active

# Tested on: CFU-GM
# Assay: Inhibition of colony formation in human CFU-GM cells assessed as reduction in colony number and size at 1 uM incubated for 14 days by crystal violet staining based analysis
# Format: toxicity, cell-based
# Settings: 336 h, time 14 day
row,Structure (SMILES),Activity
1,COc1cccc2c1C(=O)c1c(O)c3c(c(O)c1C2=O)C[C@@](O)(C(=O)CO)C[C@@H]3O[C@H]1C[C@H](N)[C@H](O)[C@H](C)O1 [DOXORUBICIN],Toxic

# Tested on: EU-1
# Assay: Inhibition of MDM2/XIAP IRES mRNA interaction in human EU-1 cells assessed as increase in caspase-9 cleavage at 5 uM measured for 24 hrs by western blot analysis
# Format: cell-based
# Settings: not given
row,Structure (SMILES),inhibition
1,Cc1ccc(NS(=O)(=O)c2ccc3c(c2)C2C=CCC2C(c2ccc(C(=O)O)cc2)N3)cc1C (stereo unspecified),Active

# Tested on: EU-1
# Assay: Inhibition of MDM2/XIAP IRES mRNA interaction in human EU-1 cells assessed as increase in PARP cleavage at 5 uM measured for 24 hrs by western blot analysis
# Format: cell-based
# Settings: not given
row,Structure (SMILES),inhibition
1,Cc1ccc(NS(=O)(=O)c2ccc3c(c2)C2C=CCC2C(c2ccc(C(=O)O)cc2)N3)cc1C (stereo unspecified),Active

# Tested on: not listed separately
# Assay: Inhibition of colony formation in human BFU-E cells assessed as reduction in colony number and size at 1 uM incubated for 14 days by crystal violet staining based analysis
# Format: toxicity, cell-based
# Settings: 336 h, time 14 day
row,Structure (SMILES),Activity
1,COc1cccc2c1C(=O)c1c(O)c3c(c(O)c1C2=O)C[C@@](O)(C(=O)CO)C[C@@H]3O[C@H]1C[C@H](N)[C@H](O)[C@H](C)O1 [DOXORUBICIN],Toxic
